Test results from patent US9884832B2 (priority 2011, dated 2018).
Like-named read-outs stand apart in the source and are kept apart here.

How the values were obtained:
[1] = molecular target: AM2 V27A (valine→alanine mutation at residue 27 in the M2 protein) (Influenza A virus, UniProt P0DOF5, V27A); format: cell-based, influenza virus A/Udorn/72
[2] = molecular target: AM2 S31N (serine→asparagine mutation at residue 31 in the M2 protein) (Influenza A virus, UniProt P0DOF5, S31N); format: cell-based, influenza virus A/Udorn/72

Row | Structure (SMILES) | V27A OOcyte Inhibition at 100 uM (%) ([1]; pH 5.5) | S31N OOcyte Inhibition at 100 uM (%) ([2]; pH 5.5) | V27A OOcyte Inhibition at 100 uM (%) [1] | S31N OOcyte Inhibition at 100 uM (%) [2]
1 | CC(C)(C)OC(=O)Nc1ccc(CNC23CC4CC(CC(C4)C2)C3)cc1 [Example 12, [4-(Adamantan-1-ylaminomethyl)-phenyl]carbamic acid tert-butyl ester] | B (key: (A)=31-95%; (B)=0-30%) | B (key: (A)=31-95%; (B)=0-30%) | – | –
2 | CC(=O)Oc1ccc(CNC23CC4CC(CC(C4)C2)C3)c(O)c1 [Example 60, Acetic acid 4-(adamantan-1-ylaminomethyl)-3-hydroxy-phenyl ester] | B (key: (A)=31-95%; (B)=0-30%) | A (key: (A)=31-95%; (B)=0-30%) | – | –
3 | Cc1cc(CNC23CC4CC(CC(C4)C2)C3)ccc1O [Example 51, 4-(Adamantan-1-ylaminomethyl)-2-methyl-phenol] | B (key: (A)=31-95%; (B)=0-30%) | B (key: (A)=31-95%; (B)=0-30%) | – | –
4 | c1cc2cc(CNC34CC5CC(CC(C5)C3)C4)sc2s1 [Example 79, Adamantan-1-yl-thieno[2,3-b]thiophen-2-ylmethyl-amine] | B (key: (A)=31-95%; (B)=0-30%) | A (key: (A)=31-95%; (B)=0-30%) | – | –
5 | COc1ccc(CNC23CC4CC(CC(C4)C2)C3)c(OC)c1 [Example 59, Adamantan-1-yl-(2,4-dimethoxy-benzyl)-amine] | B (key: (A)=31-95%; (B)=0-30%) | B (key: (A)=31-95%; (B)=0-30%) | – | –
6 | Oc1ccc(CNC23CC4CC(CC2C4)C3)c(O)c1 [Example 111, 4-[(Hexahydro-2,5-methano-pentalen-3a-ylamino)-methyl]-benzene-1,3-diol] | B (key: (A)=31-95%; (B)=0-30%) | A (key: (A)=31-95%; (B)=0-30%) | – | –
7 | c1ccc(CNC23CC4CC(CC(C4)C2)C3)nc1 [Example 72, Adamantan-1-yl-pyridin-2-ylmethyl-amine] | B (key: (A)=31-95%; (B)=0-30%) | B (key: (A)=31-95%; (B)=0-30%) | – | –
8 | c1cc2cc(CNC34CC5CC(CC(C5)C3)C4)sc2o1 [Example 83, Adamantan-1-yl-thieno[2,3-b]furan-5-ylmethyl-amine] | B (key: (A)=31-95%; (B)=0-30%) | A (key: (A)=31-95%; (B)=0-30%) | – | –
9 | Oc1ccc(/C=N/C23CC4CC(CC(C4)C2)C3)c(O)c1 [Example 7] | A (key: (A)=31-95%; (B)=0-30%) | B (key: (A)=31-95%; (B)=0-30%) | – | –
10 | c1cc(CNC23CC4CC(CC(C4)C2)C3)cs1 [Example 68a, Adamantan-1-yl-thiophen-3-ylmethyl-amine] | – | – | A (key: (A)=31-95%; (B)=0-30%) | B (key: (A)=31-95%; (B)=0-30%)
11 | F[B-](F)(F)C[NH2+]C12CC3CC(CC(C3)C1)C2 [Example 204a, N-[(Trifluoro-4-boranyl)methyl]adamantan-1-aminium] | – | – | B (key: (A)=31-95%; (B)=0-30%) | B (key: (A)=31-95%; (B)=0-30%)
12 | NC(=O)COc1ccc(CNC23CC4CC(CC(C4)C2)C3)cc1 [Example 39, 2-(4-((Adamantan-1-ylamino)methyl)phenoxy)acetamide] | B (key: (A)=31-95%; (B)=0-30%) | B (key: (A)=31-95%; (B)=0-30%) | – | –
13 | CC(NC12CC3CC(CC(C3)C1)C2)c1ccc(C#N)s1 (stereo not drawn) [Example 92a, 5-(1-(adamantan-1-ylamino)ethyl)thiophene-2-carbonitrile] | – | – | B (key: (A)=31-95%; (B)=0-30%) | B (key: (A)=31-95%; (B)=0-30%)
14 | Cc1csc2sc(CNC34CC5CC(CC(C5)C3)C4)c(C)c12 [Example 176a] | – | – | B (key: (A)=31-95%; (B)=0-30%) | B (key: (A)=31-95%; (B)=0-30%)
15 | CC1(C)CCC(NCc2ccc(O)cc2O)CC1 [Example 108, 4-[(4,4-Dimethyl-cyclohexylamino)-methyl]-benzene-1,3-diol] | B (key: (A)=31-95%; (B)=0-30%) | B (key: (A)=31-95%; (B)=0-30%) | – | –
16 | O=C(Oc1ccc(CNC23CC4CC(CC(C4)C2)C3)cc1)c1cccs1 [Example 37, Thiophene-2-carboxylic acid 4-(adamantan-1-ylaminomethyl)-phenyl ester] | B (key: (A)=31-95%; (B)=0-30%) | A (key: (A)=31-95%; (B)=0-30%) | – | –
17 | c1ccc2nc(CNC34CC5CC(CC(C5)C3)C4)ccc2c1 [Example 56a, Adamantan-1-yl-quinolin-2-ylmethyl-amine] | – | – | B (key: (A)=31-95%; (B)=0-30%) | A (key: (A)=31-95%; (B)=0-30%)
18 | c1cnc2ccc(CNC34CC5CC(CC(C5)C3)C4)cc2c1 [Example 39a, Adamantan-1-yl-quinolin-6-ylmethyl-amine] | – | – | B (key: (A)=31-95%; (B)=0-30%) | A (key: (A)=31-95%; (B)=0-30%)

Row | Structure (SMILES) | V27A OOcyte Inhibition at 100 uM (%) ([1]; pH 5.5) | S31N OOcyte Inhibition at 100 uM (%) ([2]; pH 5.5) | V27A OOcyte Inhibition at 100 uM (%) [1] | S31N OOcyte Inhibition at 100 uM (%) [2]
19 | CC(C)(C)CC(C)(C)NCc1ccc(O)cc1O [Example 112, 4-[(1,1,3,3-Tetramethyl-butylamino)-methyl]-benzene-1,3-diol] | A (key: (A)=31-95%; (B)=0-30%) | B (key: (A)=31-95%; (B)=0-30%) | – | –
20 | C[S+]([O-])c1ccc(CNC23CC4CC(CC(C4)C2)C3)cc1 (stereo not drawn) [Example 24, Adamantan-1-yl-(4-methanesulfinyl-benzyl)-amine] | B (key: (A)=31-95%; (B)=0-30%) | B (key: (A)=31-95%; (B)=0-30%) | – | –
21 | CSc1ccc(CNC23CC4CC(CC(C4)C2)C3)c(SC)c1 [Example 55, Adamantan-1-yl-(2,4-bis-methylsulfanyl-benzyl)-amine] | B (key: (A)=31-95%; (B)=0-30%) | B (key: (A)=31-95%; (B)=0-30%) | – | –
22 | c1ccc2[nH]c(CNC34CC5CC(CC(C5)C3)C4)cc2c1 [Example 93, Adamantan-1-yl-(1H-indol-2-ylmethyl)-amine] | B (key: (A)=31-95%; (B)=0-30%) | A (key: (A)=31-95%; (B)=0-30%) | – | –
23 | CCOc1ccc(CNC23CC4CC(CC(C4)C2)C3)cc1 [Example 20, Adamantan-1-yl-(4-ethoxy-benzyl)-amine] | B (key: (A)=31-95%; (B)=0-30%) | A (key: (A)=31-95%; (B)=0-30%) | – | –
24 | Oc1cc(OCc2ccccc2)ccc1CNC12CC3CC(CC(C3)C1)C2 [Example 37a, 2-(Adamantan-1-ylaminomethyl)-5-benzyloxy-phenol] | – | – | B (key: (A)=31-95%; (B)=0-30%) | A (key: (A)=31-95%; (B)=0-30%)
25 | NCc1ccc(CNC23CC4CC(CC(C4)C2)C3)cc1 [Example 13, Adamantan-1-yl-(4-aminomethyl-benzyl)-amine] | A (key: (A)=31-95%; (B)=0-30%) | B (key: (A)=31-95%; (B)=0-30%) | – | –
26 | COc1ccc(-c2ccc(CNC34CC5CC(CC(C5)C3)C4)s2)cc1 [Example 113a, N-((5-(4-methoxyphenyl)thiophen-2-yl)methyl)adamantan-1-amine] | – | – | B (key: (A)=31-95%; (B)=0-30%) | A (key: (A)=31-95%; (B)=0-30%)
27 | Oc1ccc(CNC23CC4CCC(CC(C4)C2)C3)c(O)c1 [Example 110, 4-(Tricyclo[4.3.1.13,8]undec-1-ylaminomethyl)-benzene-1,3-diol] | A (key: (A)=31-95%; (B)=0-30%) | A (key: (A)=31-95%; (B)=0-30%) | – | –
28 | Oc1c(CNC23CC4CC(CC(C4)C2)C3)ccc2ccccc12 [Example 97, 2-(Adamantan-1-ylaminomethyl)-naphthalen-1-ol] | B (key: (A)=31-95%; (B)=0-30%) | A (key: (A)=31-95%; (B)=0-30%) | – | –
29 | c1csc(-c2cc(CNC34CC5CC(CC(C5)C3)C4)no2)c1 [Example 142a, N-((5-(thiophen-2-yl)isoxazol-3-yl)methyl)adamantan-1-amine] | – | – | B (key: (A)=31-95%; (B)=0-30%) | A (key: (A)=31-95%; (B)=0-30%)
30 | c1cc(-c2ccc(CNC34CC5CC(CC(C5)C3)C4)s2)co1 [Example 137a, N-((5-(Furan-3-yl)thiophen-2-yl)methyl)adamantan-1-amine] | – | – | B (key: (A)=31-95%; (B)=0-30%) | A (key: (A)=31-95%; (B)=0-30%)
31 | COc1cc(O)ccc1CNC12CC3CC(CC(C3)C1)C2 [Example 56, 4-(Adamantan-1-ylaminomethyl)-3-methoxy-phenol] | B (key: (A)=31-95%; (B)=0-30%) | B (key: (A)=31-95%; (B)=0-30%) | – | –
32 | c1csc(-c2ccc(CNC34CC5CC(CC(C5)C3)C4)s2)c1 [Example 78, N-([2,2′-Bithiophen]-5-ylmethyl)adamantan-1-amine] | B (key: (A)=31-95%; (B)=0-30%) | A (key: (A)=31-95%; (B)=0-30%) | – | –
33 | c1cc(-c2ccc(CNC34CC5CC(CC(C5)C3)C4)o2)[nH]n1 [Example 162a, N-((5-(1H-pyrazol-5-yl)furan-2-yl)methyl)adamantan-1-amine] | – | – | B (key: (A)=31-95%; (B)=0-30%) | B (key: (A)=31-95%; (B)=0-30%)
34 | CCOc1ccc(CNC23CC4CC(CC(C4)C2)C3)cc1 [Example 1a, Adamantan-1-yl-(4-ethoxy-benzyl)-amine] | – | – | B (key: (A)=31-95%; (B)=0-30%) | A (key: (A)=31-95%; (B)=0-30%)
35 | O=[N+]([O-])c1cc(CNC23CC4CC(CC(C4)C2)C3)ccc1O [Example 52, 4-(Adamantan-1-ylaminomethyl)-2-nitro-phenol] | A (key: (A)=31-95%; (B)=0-30%) | B (key: (A)=31-95%; (B)=0-30%) | – | –
36 | c1cc2sc(CNC34CC5CC(CC(C5)C3)C4)cc2s1 [Example 81, Adamantan-1-yl-thieno[3,2-b]thiophen-2-ylmethyl-amine] | B (key: (A)=31-95%; (B)=0-30%) | A (key: (A)=31-95%; (B)=0-30%) | – | –
